Laboratory results published in ChEMBL document CHEMBL3046007, “Isonicotinic acid hydrazide derivatives: synthesis, antimicrobial activity, and QSAR studies” (Med Chem Res, 2012).
≈ marks a conversion by molar mass, not a printed value.

How the values were obtained:
Sindbis virus = test: Antiviral activity against Sindbis virus infected Vero cells assessed as inhibition of virus-induced cytopathicity; type: functional, organism-based
[1] = Cytotoxicity against Homo sapiens (human) HeLa cells; type: cell-based
Coxsackievirus B4 [2] = test: Antiviral activity against Human coxsackievirus B4 infected Vero cells assessed as inhibition of virus-induced cytopathicity; type: functional, organism-based; details: Enterovirus B
[3] = test system: Vesicular stomatitis virus; test: Antiviral activity against Vesicular stomatitis virus infected human HeLa cells assessed as inhibition of virus-induced cytopathicity; type: functional, organism-based
Human alphaherpesvirus 1 [4] = test: Antiviral activity against Human herpesvirus 1 strain KOS infected in human HEL cells assessed as inhibition of virus-induced cytopathicity; type: functional, organism-based; details: Human alphaherpesvirus 1, KOS
Human alphaherpesvirus 1 [5] = test: Antiviral activity against TK(-) aciclovir-resistant Human herpesvirus 1 strain KOS infected in human HEL cells assessed as inhibition of virus-induced cytopathicity; type: functional, organism-based; details: Human alphaherpesvirus 1, KOS
[6] = test system: Human immunodeficiency virus 1; test: Antiviral activity against Human immunodeficiency virus 1 IIIB infected human MT4 cells assessed as inhibition of virus-induced cytopathicity; type: functional, organism-based
[7] = test system: Mammalian orthoreovirus 1; test: Antiviral activity against Mammalian orthoreovirus 1 infected Vero cells assessed as inhibition of virus-induced cytopathicity; type: functional, organism-based; details: Mammalian orthoreovirus 1, Vero
Coxsackievirus B4 [8] = test: Antiviral activity against Human coxsackievirus B4 infected human HeLa cells assessed as inhibition of virus-induced cytopathicity; type: functional, organism-based; details: Enterovirus B
Aspergillus niger = test: Antimicrobial activity against Aspergillus niger after 7 days by serial dilution method; type: functional
[9] = test system: Respiratory syncytial virus; test: Antiviral activity against Respiratory syncytial virus infected human HeLa cells assessed as inhibition of virus-induced cytopathicity; type: functional, organism-based
Vaccinia virus = test: Antiviral activity against Vaccinia virus infected human HEL cells assessed as inhibition of virus-induced cytopathicity; type: functional, organism-based; details: Orthopoxvirus vaccinia
Human alphaherpesvirus 2 = test: Antiviral activity against Human herpesvirus 2 strain G infected human HEL cells assessed as inhibition of virus-induced cytopathicity; type: functional, organism-based; details: Human alphaherpesvirus 2, strain G
[10] = test system: Human immunodeficiency virus 2; test: Antiviral activity against Human immunodeficiency virus type 2 (ISOLATE ROD) infected human MT4 cells assessed as inhibition of virus-induced cytopathicity; type: functional, organism-based; details: Human immunodeficiency virus 2, ISOLATE ROD
Staphylococcus aureus = test: Antimicrobial activity against Staphylococcus aureus after 24 hr by serial dilution method; type: functional
Human respirovirus 3 = test: Antiviral activity against Human parainfluenza virus 3 infected Vero cells assessed as inhibition of virus-induced cytopathicity; type: functional, organism-based; details: Human respirovirus 3, Vero
Bacillus subtilis = test: Antimicrobial activity against Bacillus subtilis after 24 hr by serial dilution method; type: functional
[11] = Cytotoxicity against Chlorocebus aethiops (African green monkey) Vero cells assessed as alteration in cell morphology; type: cell-based; details: chlorocebus sabaeus
Escherichia coli = test: Antimicrobial activity against Escherichia coli after 24 hr by serial dilution method; type: functional
Punta Toro virus = test: Antiviral activity against Punta Toro virus infected Vero cells assessed as inhibition of virus-induced cytopathicity; type: functional, organism-based
[12] = Cytotoxicity against Homo sapiens (human) MT4 cells; type: cell-based
[13] = Cytotoxicity against Homo sapiens (human) HEL cells; type: cell-based
Candida albicans = test: Antimicrobial activity against Candida albicans after 48 hr by serial dilution method; type: functional

Structure (SMILES): CCOc1cc(/C=N/NC(=O)c2ccncc2)ccc1O
- EC50 (Sindbis virus): > 100 µg/mL
- MCC [1]: > 100 µg/mL
- EC50 (Coxsackievirus B4 [2]): > 100 µg/mL
- EC50 [3]: > 100 µg/mL
- EC50 (Human alphaherpesvirus 1 [4]): > 100 µg/mL
- EC50 (Human alphaherpesvirus 1 [5]): > 100 µg/mL
- EC50 [6]: > 102 µg/mL
- EC50 [7]: > 100 µg/mL
- EC50 (Coxsackievirus B4 [8]): > 100 µg/mL
- -logMIC (Aspergillus niger): 2.36
- EC50 [9]: > 100 µg/mL
- EC50 (Vaccinia virus): > 100 µg/mL
- EC50 (Human alphaherpesvirus 2): > 100 µg/mL
- EC50 [10]: > 102 µg/mL
- -logMIC (Staphylococcus aureus): 2.06
- EC50 (Human respirovirus 3): > 100 µg/mL
- -logMIC (Bacillus subtilis): 2.06
- MCC [11]: > 100 µg/mL
- -logMIC (Escherichia coli): 2.36
- EC50 (Punta Toro virus): > 100 µg/mL
- CC50 [12]: 102 µg/mL (≈ 358 µM)
- MCC [13]: > 100 µg/mL
- -logMIC (Candida albicans): 2.36

Structure (SMILES): COc1cccc(OC)c1/C=N/NC(=O)c1ccncc1
- EC50 (Sindbis virus): > 20 µg/mL
- MCC [1]: 100 µg/mL
- EC50 (Coxsackievirus B4 [2]): > 20 µg/mL
- EC50 [3]: > 20 µg/mL
- EC50 (Human alphaherpesvirus 1 [4]): > 100 µg/mL
- EC50 (Human alphaherpesvirus 1 [5]): > 100 µg/mL
- EC50 [6]: > 9 µg/mL
- EC50 [7]: > 20 µg/mL
- EC50 (Coxsackievirus B4 [8]): > 20 µg/mL
- -logMIC (Aspergillus niger): 2.36
- EC50 [9]: > 20 µg/mL
- EC50 (Vaccinia virus): > 100 µg/mL
- EC50 (Human alphaherpesvirus 2): > 100 µg/mL
- EC50 [10]: > 9 µg/mL
- -logMIC (Staphylococcus aureus): 2.06
- EC50 (Human respirovirus 3): > 20 µg/mL
- -logMIC (Bacillus subtilis): 2.06
- MCC [11]: 100 µg/mL
- -logMIC (Escherichia coli): 2.06
- EC50 (Punta Toro virus): > 20 µg/mL
- CC50 [12]: 9 µg/mL (≈ 31.5 µM)
- MCC [13]: > 100 µg/mL
- -logMIC (Candida albicans): 2.36

Structure (SMILES): COc1cc(/C=N/NC(=O)c2ccncc2)cc(OC)c1OC
- EC50 (Sindbis virus): > 100 µg/mL
- MCC [1]: ≥ 100 µg/mL
- EC50 (Coxsackievirus B4 [2]): > 100 µg/mL
- EC50 [3]: > 100 µg/mL
- EC50 (Human alphaherpesvirus 1 [4]): > 100 µg/mL
- EC50 (Human alphaherpesvirus 1 [5]): > 100 µg/mL
- EC50 [6]: > 110 µg/mL
- EC50 [7]: > 100 µg/mL
- EC50 (Coxsackievirus B4 [8]): > 100 µg/mL
- -logMIC (Aspergillus niger): 2.4
- EC50 [9]: > 100 µg/mL
- EC50 (Vaccinia virus): > 100 µg/mL
- EC50 (Human alphaherpesvirus 2): > 100 µg/mL
- EC50 [10]: > 110 µg/mL
- -logMIC (Staphylococcus aureus): 2.1
- EC50 (Human respirovirus 3): > 100 µg/mL
- -logMIC (Bacillus subtilis): 2.4
- MCC [11]: > 100 µg/mL
- -logMIC (Escherichia coli): 2.1
- EC50 (Punta Toro virus): > 100 µg/mL
- CC50 [12]: 110 µg/mL (≈ 349 µM)
- MCC [13]: > 100 µg/mL
- -logMIC (Candida albicans): 2.4

Structure (SMILES): CSc1ccc(/C=N/NC(=O)c2ccncc2)cc1
- EC50 (Sindbis virus): > 100 µg/mL
- MCC [1]: 100 µg/mL
- EC50 (Coxsackievirus B4 [2]): 9 µg/mL (≈ 33.2 µM)
- EC50 [3]: > 20 µg/mL
- EC50 (Human alphaherpesvirus 1 [4]): > 100 µg/mL
- EC50 (Human alphaherpesvirus 1 [5]): > 100 µg/mL
- EC50 [6]: > 59 µg/mL
- EC50 [7]: > 100 µg/mL
- EC50 (Coxsackievirus B4 [8]): > 20 µg/mL
- -logMIC (Aspergillus niger): 2.34
- EC50 [9]: > 20 µg/mL
- EC50 (Vaccinia virus): > 100 µg/mL
- EC50 (Human alphaherpesvirus 2): > 100 µg/mL
- EC50 [10]: > 59 µg/mL
- -logMIC (Staphylococcus aureus): 2.04
- EC50 (Human respirovirus 3): > 100 µg/mL
- -logMIC (Bacillus subtilis): 2.04
- MCC [11]: ≥ 100 µg/mL
- -logMIC (Escherichia coli): 2.34
- EC50 (Punta Toro virus): > 100 µg/mL
- CC50 [12]: 59 µg/mL (≈ 217 µM)
- MCC [13]: > 100 µg/mL
- -logMIC (Candida albicans): 2.34

Structure (SMILES): O=C(N/N=C/c1c[nH]c2ccccc12)c1ccncc1
- EC50 (Sindbis virus): > 100 µg/mL
- MCC [1]: ≥ 100 µg/mL
- EC50 (Coxsackievirus B4 [2]): 45 µg/mL (≈ 170 µM)
- EC50 [3]: > 100 µg/mL
- EC50 (Human alphaherpesvirus 1 [4]): > 100 µg/mL
- EC50 (Human alphaherpesvirus 1 [5]): > 100 µg/mL
- EC50 [6]: > 95 µg/mL
- EC50 [7]: 2.4 µg/mL (≈ 9.08 µM)
- EC50 (Coxsackievirus B4 [8]): > 100 µg/mL
- -logMIC (Aspergillus niger): 2.32
- EC50 [9]: > 100 µg/mL
- EC50 (Vaccinia virus): > 100 µg/mL
- EC50 (Human alphaherpesvirus 2): > 100 µg/mL
- EC50 [10]: > 95 µg/mL
- -logMIC (Staphylococcus aureus): 2.02
- EC50 (Human respirovirus 3): > 100 µg/mL
- -logMIC (Bacillus subtilis): 2.02
- MCC [11]: > 100 µg/mL
- -logMIC (Escherichia coli): 2.02
- EC50 (Punta Toro virus): > 100 µg/mL
- CC50 [12]: 95 µg/mL (≈ 359 µM)
- MCC [13]: > 100 µg/mL
- -logMIC (Candida albicans): 2.63

Structure (SMILES): O=C(N/N=C/c1c(O)ccc2ccccc12)c1ccncc1
- EC50 (Sindbis virus): > 0.8 µg/mL
- MCC [1]: 0.2 µg/mL
- EC50 (Coxsackievirus B4 [2]): > 0.8 µg/mL
- EC50 [3]: > 0.04 µg/mL
- EC50 (Human alphaherpesvirus 1 [4]): 0.06 µg/mL (≈ 0.206 µM)
- EC50 (Human alphaherpesvirus 1 [5]): 0.4 µg/mL (≈ 1.37 µM)
- EC50 [6]: > 0.1 µg/mL
- EC50 [7]: > 0.8 µg/mL
- EC50 (Coxsackievirus B4 [8]): > 0.04 µg/mL
- -logMIC (Aspergillus niger): 2.37
- EC50 [9]: > 0.04 µg/mL
- EC50 (Vaccinia virus): 0.14 µg/mL (≈ 0.481 µM)
- EC50 (Human alphaherpesvirus 2): 0.4 µg/mL (≈ 1.37 µM)
- EC50 [10]: > 0.1 µg/mL
- -logMIC (Staphylococcus aureus): 2.07
- EC50 (Human respirovirus 3): > 0.8 µg/mL
- -logMIC (Bacillus subtilis): 2.07
- MCC [11]: ≥ 0.8 µg/mL
- -logMIC (Escherichia coli): 2.07
- EC50 (Punta Toro virus): > 0.8 µg/mL
- CC50 [12]: 0.1 µg/mL (≈ 0.343 µM)
- MCC [13]: ≥ 20 µg/mL
- -logMIC (Candida albicans): 2.37

Structure (SMILES): COc1cc(/C=N/NC(=O)c2ccncc2)ccc1O [FTIVAZIDE]
- EC50 (Sindbis virus): > 100 µg/mL
- MCC [1]: 100 µg/mL
- EC50 (Coxsackievirus B4 [2]): > 100 µg/mL
- EC50 [3]: > 20 µg/mL
- EC50 (Human alphaherpesvirus 1 [4]): > 100 µg/mL
- EC50 (Human alphaherpesvirus 1 [5]): > 100 µg/mL
- EC50 [6]: > 89 µg/mL
- EC50 [7]: > 100 µg/mL
- EC50 (Coxsackievirus B4 [8]): > 20 µg/mL
- -logMIC (Aspergillus niger): 2.34
- EC50 [9]: > 20 µg/mL
- EC50 (Vaccinia virus): > 100 µg/mL
- EC50 (Human alphaherpesvirus 2): > 100 µg/mL
- EC50 [10]: > 89 µg/mL
- -logMIC (Staphylococcus aureus): 2.04
- EC50 (Human respirovirus 3): > 100 µg/mL
- -logMIC (Bacillus subtilis): 2.04
- MCC [11]: > 100 µg/mL
- -logMIC (Escherichia coli): 2.34
- EC50 (Punta Toro virus): > 100 µg/mL
- CC50 [12]: ≥ 89 µg/mL
- MCC [13]: > 100 µg/mL
- -logMIC (Candida albicans): 2.34

Structure (SMILES): Cc1ccc(/C=N/NC(=O)c2ccncc2)cc1 [N'-(4-METHYLBENZYLIDENE)ISONICOTINOHYDRAZIDE]
- EC50 (Sindbis virus): > 20 µg/mL
- MCC [1]: 100 µg/mL
- EC50 (Coxsackievirus B4 [2]): > 20 µg/mL
- EC50 [3]: > 20 µg/mL
- EC50 (Human alphaherpesvirus 1 [4]): > 100 µg/mL
- EC50 (Human alphaherpesvirus 1 [5]): > 100 µg/mL
- EC50 [6]: > 25 µg/mL
- EC50 [7]: > 20 µg/mL
- EC50 (Coxsackievirus B4 [8]): 9 µg/mL (≈ 37.6 µM)
- -logMIC (Aspergillus niger): 2.28
- EC50 [9]: > 20 µg/mL
- EC50 (Vaccinia virus): > 100 µg/mL
- EC50 (Human alphaherpesvirus 2): > 100 µg/mL
- EC50 [10]: > 25 µg/mL
- -logMIC (Staphylococcus aureus): 1.98
- EC50 (Human respirovirus 3): > 20 µg/mL
- -logMIC (Bacillus subtilis): 1.98
- MCC [11]: ≥ 20 µg/mL
- -logMIC (Escherichia coli): 1.98
- EC50 (Punta Toro virus): > 20 µg/mL
- CC50 [12]: 25 µg/mL (≈ 104 µM)
- MCC [13]: > 100 µg/mL
- -logMIC (Candida albicans): 2.28
